Where no end group is shown, it is not given here.
Target: δPKC (Homo sapiens, UniProt Q05655)
Assay: AGILE label-free binding assay, δPKC to immobilized peptide

Sequence of δPKC (Q05655 whole entry): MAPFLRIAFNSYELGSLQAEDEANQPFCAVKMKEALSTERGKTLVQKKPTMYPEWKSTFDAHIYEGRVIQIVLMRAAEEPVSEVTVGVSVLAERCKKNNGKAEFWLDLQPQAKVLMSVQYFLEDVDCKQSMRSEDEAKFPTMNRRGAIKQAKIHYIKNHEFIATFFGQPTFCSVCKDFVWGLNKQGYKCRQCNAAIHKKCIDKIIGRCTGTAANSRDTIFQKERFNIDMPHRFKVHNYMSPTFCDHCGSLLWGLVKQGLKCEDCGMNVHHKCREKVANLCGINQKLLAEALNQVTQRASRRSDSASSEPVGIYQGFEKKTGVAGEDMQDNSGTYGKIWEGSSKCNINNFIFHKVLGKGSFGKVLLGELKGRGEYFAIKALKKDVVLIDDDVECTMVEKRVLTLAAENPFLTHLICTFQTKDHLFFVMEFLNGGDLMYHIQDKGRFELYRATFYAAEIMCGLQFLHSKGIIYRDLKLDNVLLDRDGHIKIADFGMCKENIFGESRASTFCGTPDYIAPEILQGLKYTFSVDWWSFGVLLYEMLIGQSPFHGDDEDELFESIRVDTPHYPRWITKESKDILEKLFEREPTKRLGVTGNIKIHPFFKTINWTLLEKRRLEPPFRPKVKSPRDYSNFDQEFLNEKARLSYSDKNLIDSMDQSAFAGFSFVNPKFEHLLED

Substance	IC50 [nM]	Kd [nM]
ALSTER [ψPDK]	53	53 ± 19
ALSAER [ψPDK analog]	1250	1250
